From patent US20110306775A1, “SYNTHESIS AND BIOLOGICAL EVALUATION OF 2',5'-DIMETHOXYCHALCONE DERIVATIVES AS MICROTUBULE-TARGETED ANTICANCER AGENTS” (KAOHSIUNG MEDICAL UNIVERSITY, priority 2010, published 2011) come the findings set out here.

The IC50 is the concentration at which inhibition is half-maximal. A low value points to greater potency in that assay. For orientation: melting point means the temperature of the solid-liquid transition.

In series [1] the test system is NTUB1 cells. The series can be described thus: Cell cycle analysis (propidium iodide, flow cytometer), NTUB1 cells. Particulars: 24 hours, FIG. 2. It is filed as cell-based, human. The protocol:
(§1) DNA content was determined following propidium iodide (PI) staining of cells. Briefly, 6×10^5 cells were plated and treated with 20 μM cisplatin and various concentrations of compounds 11 and 15 for 24 hours, respectively. These cells were harvested by trypsinization, washed with 1×PBS, and fixed in ice-cold MeOH at −20° C. After overnight incubation, the cells were washed with PBS and incubated with 50 μg/mL propidium iodide and 50 μg/mL RNase A in PBS at room temperature for 30 minutes. The fractions of cells in each phase of cell cycle were analyzed using flow cytometer.
For orientation: Flow cytometry measures light scatter and fluorescence of single cells or particles in a stream.

In series [2] the test system is PC3 cells. Description: MTT cytotoxicity assay, PC3 cells. The class given is cell-based, human. The following applies: for IC50: mean ± SD, n = 3-5. An excerpt: (§2) The cell lines of the present invention were an human urothelial carcinoma cell line (NTUB1), a human prostate cancer cell line (PC3), a human lung adenocarcinoma epithelial cell line (A549) and a SV-40 immortalized human uroepithelial cell line (SV-HUC1). However, the cell lines applied in the present invention includes but not limit in NTUB1, PC3, A549 and SV-HUC1 cells. Other cell lines having the same characteristics or not exactly the same characteristics are able to be used in the present invention. NTUB1, PC3 and A549 cells were maintained in RPMI 1640 and SV-HUC1 cells were maintained in F12 medium supplemented with 10% fetal bovine serum (FBS), 100 unit/mL penicillin-G, 100 μg/mL streptomycin and 2 mM glutamine. The cells were cultured at 37° C. in a humidified atmosphere containing 5% carbon dioxide.
(§3) The cytotoxic effect of compounds 1 to 18 of the present invention and cisplatin (positive control) on the cell lines was evaluated using 3-[4,5-dimethylthiazol-2-yl]-2,5-diphenyltetrazolium bromide (MTT) assay. Briefly, the cells were plated at a density of 1800 cells/well in 96-well plates and incubated in the presence of graded concentrations of compounds 1 to 18 and cisplatin at 37° C. for 72 hours. At the end of the culture period, 50 μL of MTT ([…] in PBS) was added to each well and allowed to react for 3 hours. Following centrifugation of plates at 1000 g for 10 minutes, media were removed and 150 μL dimethyl sulfoxide (DMSO) were added to each well. The proportions of surviving cells were determined by absorbance spectrometry at 540 nm. The cell viability was expressed as a percentage to the viable cells of control culture condition. The IC50 value of each group were calculated by the median-effect analysis and presented as mean±standard deviation (SD).
(In general: Tetrazolium assays rely on reduction of a dye to a coloured formazan, in cell work by metabolically active cells.)

Series [3] concerns PC3 cells. The series can be described thus: Cell cycle analysis (propidium iodide, flow cytometer), PC3 cells. It is filed as cell-based, human. The following applies: FIG. 3. The protocol: as §1
Series [4] concerns NTUB1 cells. The series can be described thus: MTT cytotoxicity assay, NTUB1 cells. The following applies: for IC50: mean ± SD, n = 3-5. The class given is cell-based, human.
Text: as §2, §3

Another series deals with α-tubulin. Description: Western blot analysis for α-tubulin (soluble vs assembled) in NTUB1 cells. It is filed as cell-based, human. The following applies: NTUB1, 500 nM, 6 hours, FIG. 4. The protocol: NTUB1 cells were seeded at a density of 1×10^6/[…] dishes and treated with indicated concentrations of test agents for 6 hours. The cells were then washed with cold PBS and lysed by adding lysis buffer (20 mM Tris-HCl (pH 6.8), 1 mM MgCl2, 2 mM EGTA (ethylene glycol tetraacetic acid), […] aprotinin, […], 1 mM phenylmethylsulfonyl fluoride, 1 mM orthovanadate, and 0.5% Nonidet P-40). The cell lysates were centrifuged at 15,000 g for 10 min at 4° C. Soluble and assembled tubulin could be separated in supernatant and pellet fraction, respectively. The supernatants and pellets were […] by the sodium dodecyl sulfate (SDS)-polyacrylamide gel electrophoresis assay. The relative amounts of tubulins transferred on the nitrocellulose membrane were detected by anti-tubulin monoclonal antibody and horseradish peroxidase (HRP)-conjugated secondary antibody. β-Actin was used for control. Detection of immunoreactive signal was accomplished with Western blot chemiluminescent reagent.
A general note: A western blot detects proteins with antibodies after separation by electrophoresis.

Some results are limits rather than exact numbers.

Consider “4-(2-methylethyl)carbamoyl-2′,5′-dimethoxychalcone [Compound 11]”, for which the apoptotic cell death result in the series on NTUB1 cells [1] (NTUB1, 1 μM) is “increase in apoptotic cell death”. For the same compound, the “cell cycle phase arrest” value with NTUB1 cells [1] (NTUB1, 1 μM, vs control) was “induced G1 phase arrest”. In the series with PC3 cells [2], the “cytotoxicity against PC3 cells (in words)” value is listed as “significantly enhanced the cytotoxicity”. Besides, the IC50 in the series on PC3 cells [2] (72 hours) amounted to 1.58 ± 0.08 µM; in the series on NTUB1 cells [4] (72 hours), 1.97 ± 0.39 µM. In the series with PC3 cells [3] (PC3, 0.3 μM), the apoptotic cells death result is on record as “increase of the apoptotic cells death”. The apoptotic cells entry in the series with PC3 cells [3] (PC3, 1 μM) is listed as “increase of apoptotic cells”. Moreover, the “cytotoxicity against NTUB1 cells (in words)” value with NTUB1 cells [4] is on record as “significantly enhanced the cytotoxicity”.
With `CCOC(=O)c1ccc(/C=C/C(=O)c2cc(OC)ccc2OC)cc1` (hydrate or solvate) [Compound 3, 4-ethoxycarbonyl-2′,5′-dimethoxychalcone], the melting point is 118 to 119 °C.
With `N.N.[Cl][Pt][Cl]` [Cisplatin, cisplatin, reference compound], in the series on NTUB1 cells [1] (NTUB1, 20 μM), the cell cycle distribution entry was “accumulation of cells in G1 and S phases”; the sub-G1 population entry is given as “increase of the population of sub-G1 phase”. This compound yielded an IC50 in the series on PC3 cells [2] (72 hours) of 4.56 ± 0.76 µM. In the series on PC3 cells [3] (PC3, 20 μM, 24 hours), the apoptotic cell death entry is on record as “increase of apoptotic cell death” and the cell cycle distribution entry was “accumulation of cells in S phase”. Inhibition in the series with NTUB1 cells [4] (72 hours) was half-maximal at 3.27 ± 0.1 µM (IC50).
On to `COc1ccc(OC)c(C(=O)/C=C/c2ccc(C(=O)O)cc2)c1` [Compound 1, 4-carboxyl-2′,5′-dimethoxychalcone], for which the melting point was 214 to 215 °C. Further, the IC50 in the series on PC3 cells [2] (Homo sapiens, PC-3, 72 hours) is 7.24 ± 0.58 µM. Moreover, in the series on NTUB1 cells [4], the “cytotoxicity against NTUB1 cells (in words)” value is reported as “significantly cytotoxic activities”. In the series on NTUB1 cells [4] (Homo sapiens, NTUB1, 72 hours), half-maximal inhibition (IC50) required 5.7 ± 0.68 µM.
In turn, `COC(=O)c1ccc(/C=C/C(=O)c2cc(OC)ccc2OC)cc1` [Compound 2, 4-methoxycarbonyl-2′,5′-dimethoxychalcone] registered a melting point of 118 to 119 °C. The compound also registered an IC50 in the series with PC3 cells [2] (Homo sapiens, PC-3, 72 hours) of 4.85 ± 0.11 µM. In the series with NTUB1 cells [4] (Homo sapiens, NTUB1, 72 hours), this compound had an IC50 of 3.51 ± 0.45 µM.
As to `CCOC(=O)c1ccc(/C=C/C(=O)c2cc(OC)ccc2OC)cc1` [Compound 3, 4-ethoxycarbonyl-2′,5′-dimethoxychalcone], the IC50 in the series on PC3 cells [2] (Homo sapiens, PC-3, 72 hours) was 5.7 ± 0.43 µM; in the series with NTUB1 cells [4] (Homo sapiens, NTUB1, 72 hours), 4.49 ± 0.98 µM.
Regarding `CCCOC(=O)c1ccc(C=CC(=O)c2cc(OC)ccc2OC)cc1` [Compound 4, propoxycarbonyl-2′,5′-dimethoxychalcone], the IC50 was found to be 26.9 µM in the series with PC3 cells [2] (72 hours) and 6.01 ± 0.3 µM in the series with NTUB1 cells [4] (72 hours).
With `COc1ccc(OC)c(C(=O)/C=C/c2ccc(C(=O)OC(C)C)cc2)c1` [Compound 5, 4-isopropoxycarbonyl-2′,5′-dimethoxychalcone], the IC50 with PC3 cells [2] (Homo sapiens, PC-3, 72 hours) was determined as 6.74 ± 1.34 µM; in the series with NTUB1 cells [4] (Homo sapiens, NTUB1, 72 hours), 4.42 ± 0.5 µM.
Taken in the same sequence, the figures for `COc1ccc(OC)c(C(=O)/C=C/c2ccc(C(=O)OCc3ccccc3)cc2)c1` [Compound 6, 4-benzyloxycarbonyl-2′,5′-dimethoxychalcone] were 17.9 ± 0.5 µM and 13.3 ± 2.86 µM.
With `COc1ccc(OC)c(C(=O)/C=C/c2ccc(C(=O)OCC=C(C)C)cc2)c1` [Compound 7, 4-(3-methyl-but-2-enyloxycarbonyl)-2′,5′-dimethoxychalcone], the concentration for half-maximal inhibition (IC50) with PC3 cells [2] (Homo sapiens, PC-3, 72 hours) is > 50 µM; with NTUB1 cells [4] (Homo sapiens, NTUB1, 72 hours), 13.4 ± 0.78 µM.
In turn, `CNC(=O)c1ccc(/C=C/C(=O)c2cc(OC)ccc2OC)cc1` [Compound 8, 4-methylcarbamoyl-2′,5′-dimethoxychalcone] registered a melting point of 217 to 218 °C. The compound further had an IC50 in the series on PC3 cells [2] (Homo sapiens, PC-3, 72 hours) of 2.13 ± 0.21 µM. In addition, in the series on NTUB1 cells [4] (Homo sapiens, NTUB1, 72 hours), the IC50 was found to be 2.2 ± 0.37 µM.
Taken in the same sequence, the figures for `CCNC(=O)c1ccc(/C=C/C(=O)c2cc(OC)ccc2OC)cc1` [Compound 9, 4-ethylcarbamoyl-2′,5′-dimethoxychalcone] were 213 to 214 °C, 4.18 ± 0.23 µM and 3.76 ± 0.4 µM.
Turning to `CCCNC(=O)c1ccc(/C=C/C(=O)c2cc(OC)ccc2OC)cc1` [Compound 10, 4-propylcarbamoyl-2′,5′-dimethoxychalcone], in the series with PC3 cells [2], the “cytotoxicity against PC3 cells (in words)” value is “significantly enhanced the cytotoxicity”. The IC50 in the series on PC3 cells [2] (Homo sapiens, PC-3, 72 hours) is 1.5 ± 0.22 µM; in the series on NTUB1 cells [4] (Homo sapiens, NTUB1, 72 hours) it was 2.26 ± 0.31 µM. For the same compound, the “cytotoxicity against NTUB1 cells (in words)” value in the series with NTUB1 cells [4] is listed as “significantly enhanced the cytotoxicity”.
Regarding `COc1ccc(OC)c(C(=O)/C=C/c2ccc(C(=O)N(C)C)cc2)c1` [Compound 12, 4-dimethylcarbamoyl-2′,5′-dimethoxychalcone], the IC50 amounted to 4.58 ± 1.05 µM with PC3 cells [2] (Homo sapiens, PC-3, 72 hours) and 3.89 ± 0.21 µM in the series on NTUB1 cells [4] (Homo sapiens, NTUB1, 72 hours).
For the compound `COc1ccc(OC)c(C(=O)/C=C/c2ccc(C(=O)NC3CCCCC3)cc2)c1` [Compound 13, 4-cyclohexylcarbamoyl-2′,5′-dimethoxychalcone], the melting point lay in the range of 280 to 281 °C. In the series on PC3 cells [2] (Homo sapiens, PC-3, 72 hours), this compound showed an IC50 of 6.3 ± 0.59 µM. The compound also came in with an IC50 in the series on NTUB1 cells [4] (Homo sapiens, NTUB1, 72 hours) of 2.25 ± 0.57 µM.
For `CCN(CC)C(=O)c1ccc(/C=C/C(=O)c2cc(OC)ccc2OC)cc1` [Compound 14, 4-diethylcarbamoyl-2′,5′-dimethoxychalcone], the IC50 worked out at 3.79 ± 0.56 µM in the series with PC3 cells [2] (Homo sapiens, PC-3, 72 hours) and 2.69 ± 0.47 µM with NTUB1 cells [4] (Homo sapiens, NTUB1, 72 hours).
Regarding `COc1ccc(OC)c(C(=O)C=Cc2ccc(C(=O)N(C)CCO)cc2)c1` [Compound 16, 4-(2-hydroxyethyl)methyl-carbamoyl-2′,5′-dimethoxychalcone], the IC50 was determined as 5.75 ± 1.27 µM with PC3 cells [2] (72 hours) and 4.42 ± 0.15 µM with NTUB1 cells [4] (72 hours).
Taken in the same sequence, the figures for `COc1ccc(OC)c(C(C=Cc2ccc(C(=O)NC3CC3)cc2)=NC2CC2)c1` [Compound 17, N-cyclopropyl-4-[3-cyclopropylimino-3-(2′,5′-dimethoxy-phenyl)-propenyl]-benzamide] were 4.26 ± 0.81 µM and 3.57 ± 0.47 µM.
Regarding `COc1ccc(OC)c(C(=O)/C=C/c2ccc(C(=O)O)s2)c1` [Compound 18], the melting point was in the range of 237 to 238 °C. Further, the “cytotoxicity against NTUB1 cells (in words)” value with NTUB1 cells [4] is listed as “no significant cytotoxicity”. Further, the IC50 in the series with NTUB1 cells [4] (Homo sapiens, NTUB1, 72 hours) was > 50 µM.
For the compound `CC(=O)O[C@H]1C(=O)[C@@]2(C)[C@H]([C@H](OC(=O)c3ccccc3)[C@]3(O)C[C@H](OC(=O)[C@H](O)[C@@H](NC(=O)c4ccccc4)c4ccccc4)C(C)=C1C3(C)C)[C@]1(OC(C)=O)CO[C@@H]1C[C@@H]2O` [Paclitaxel, paclitaxel, reference compound], the tubulin assembly entry with α-tubulin is “stabilized the tubulin assembly”.
